Results on six molecules are retold here after patent publication US20230212143A9, “PRMT5 INHIBITOR COMPOUNDS” (University of Florida Research Foundation, Incorporated, priority 2019, published 2023).

One experiment deals with T1, PRMT5:MEP50 (Homo sapiens, UniProt O14744).
T1 construct: made in house; host or cells: Sf9 insect cells (Bac-to-Bac baculovirus system)
Description: MTase-Glo enzymatic inhibition assay. The experiment is classed as biochemical. The conditions noted are these: 100 nM PRMT5:MEP50, 10 μM SAM, 2 μM histone H4 (1-21). From the text:
(§1) Protein expression and purification. […] Enzymatic inhibition assay. […] Cancer cell lines. […] Cell proliferation assay. […] Western blot.

Experiment [1] deals with T2, PRMT5 (Homo sapiens, UniProt O14744). Description: AlphaLISA enzymatic inhibition assay. Format: biochemical. On the set-up: made in house; host or cells: Sf9 insect cells (Bac-to-Bac baculovirus system).
T2 sequence (O14744 whole entry): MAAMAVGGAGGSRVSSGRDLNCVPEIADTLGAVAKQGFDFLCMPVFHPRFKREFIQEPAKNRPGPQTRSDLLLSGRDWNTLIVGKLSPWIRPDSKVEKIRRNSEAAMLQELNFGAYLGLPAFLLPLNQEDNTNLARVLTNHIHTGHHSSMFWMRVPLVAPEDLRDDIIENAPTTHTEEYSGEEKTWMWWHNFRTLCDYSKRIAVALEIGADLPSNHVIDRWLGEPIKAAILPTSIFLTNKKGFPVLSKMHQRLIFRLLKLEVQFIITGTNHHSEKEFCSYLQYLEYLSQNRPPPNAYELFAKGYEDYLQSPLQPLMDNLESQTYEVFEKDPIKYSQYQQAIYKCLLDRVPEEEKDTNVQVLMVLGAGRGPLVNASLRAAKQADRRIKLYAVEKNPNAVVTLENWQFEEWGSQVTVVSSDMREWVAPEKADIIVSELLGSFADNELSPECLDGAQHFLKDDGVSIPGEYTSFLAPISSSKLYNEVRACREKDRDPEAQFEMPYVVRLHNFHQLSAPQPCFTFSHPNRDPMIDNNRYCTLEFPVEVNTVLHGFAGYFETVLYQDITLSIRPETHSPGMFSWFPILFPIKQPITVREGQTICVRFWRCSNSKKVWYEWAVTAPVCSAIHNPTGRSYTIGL
T2 sequence (Q9BQA1 whole entry partner): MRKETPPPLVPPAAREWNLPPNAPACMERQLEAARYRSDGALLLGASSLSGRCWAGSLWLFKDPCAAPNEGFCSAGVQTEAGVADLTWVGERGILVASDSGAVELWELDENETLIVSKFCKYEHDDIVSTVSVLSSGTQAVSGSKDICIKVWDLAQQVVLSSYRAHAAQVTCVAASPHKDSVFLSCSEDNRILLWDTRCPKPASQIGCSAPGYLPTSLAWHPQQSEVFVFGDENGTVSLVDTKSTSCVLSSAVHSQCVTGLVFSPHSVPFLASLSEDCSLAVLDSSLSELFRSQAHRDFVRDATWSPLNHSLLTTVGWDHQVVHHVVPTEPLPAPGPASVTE
Description: as §1
For orientation: Alpha assays give light when donor and acceptor beads are brought close together.

Experiment [2] concerns the target T2, PRMT5. Description: Cellular Thermal Shift Assay. The experiment is classed as cell-based. On the set-up: endogenous in cells; host or cells: MDA-MB-231. Particulars: MDA-MB-231 triple negative breast cancer cells.

T1 sequence (O14744 whole entry): as the sequence (O14744 whole entry) above
T1 sequence (Q9BQA1 whole entry partner): as the sequence (Q9BQA1 whole entry partner) above

Regarding `CCn1c2c(c3cc(C(=O)NCc4ccc5ccc(N)nc5c4)ccc31)CCCC2` [Compound 11-1F], at PRMT5:MEP50 (11-series), it took 1340 nM to reach half-maximal inhibition (IC50).

Turning to `Nc1ccc2ccc(CNC(=O)c3ccc4c(c3)c3c(n4CCO)CCCC3)cc2n1` [Compound 11-2F], 883 nM corresponded to half-maximal inhibition against PRMT5:MEP50 (11-series) (IC50).

Take `CCn1c2ccccc2c2cc(CNCc3ccccn3)ccc21` [CMP5]: at PRMT5 [1], the enzymatic inhibition activity result is “weak”.

For the molecule `CC(=O)N1CCC(Nc2cc(C(=O)NCc3ccc4c(N)nc(N)nc4c3)ncn2)CC1` [Compound 15-2F], the IC50 on PRMT5:MEP50 (15-series) was determined as 152 nM.

`CC(=O)N1CCC(Nc2cc(C(=O)NCc3ccc4ccc(N)nc4c3)ncn2)CC1` [Compound 15-1F] returned an IC50 at PRMT5:MEP50 (15-series) of 218 nM.

As for `CCn1c2c(c3cc(C(=O)NCc4ccc5c(N)nc(N)nc5c4)ccc31)CCCC2` [Compound 11-9F], the “PRMT5 melting temperature increase” value on PRMT5 [2] was determined as 1.5 degree Celsius.

As usually defined, the IC50 is the concentration that inhibits the measured activity by half.
